Reference: PMC6027146, “Synthesis and Structure-Activity Relationships of (−)-cis-N-Normetazocine-Based LP1 Derivatives” (Pharmaceuticals, 2018)

Experiments:
recombinant human DOR = target: T1, recombinant human DOR (Homo sapiens, UniProt P41143); experiment: Calcium mobilization assay, CHO-DOR cells expressing GαqG66Di5; format: cell-based
T1 construct: expressed in transfected cells; supplied by Dr. Eva Varga (University of Arizona); infected with a retrovirus for GαqG66Di5
Protocol: The pharmacological characterization of LP1 derivatives 2 and 10–16 was performed by calcium mobilization assay (Table 2). This procedure was preliminarily validated through a series of experiments where the effects of DPDPE, dermorphin, and dynorphin A were assessed in CHO cells expressing the human recombinant opioid receptors and Gαqi5 or GαqG66Di5 chimeric proteins.
Chinese hamster ovary (CHO) cells expressing the recombinant human MOR and KOR (CHO^MOR and CHO^KOR) were kindly provided by Dr. Larry Toll (SRI International, Menlo Park, CA, USA), and CHO cells expressing the recombinant human DOR (CHO^DOR) were supplied by Dr. Eva Varga (Department of Medical Pharmacology, The University of Arizona, Tucson, AZ, USA). CHO cells lines permanently coexpressing the opioid receptors and the C-terminally modified Gαqi5 were prepared by infecting the CHO lines described above with a recombinant retrovirus expressing the chimeric α subunit and the hygromycin resistance gene. Similarly, CHO cells lines permanently coexpressing DOR and the C-terminally modified GαqG66Di5 were prepared by infecting the CHO lines described above with a recombinant retrovirus expressing the chimeric α subunit and the hygromycin resistance gene. Polyclonal cell lines were generated using the pantropic retroviral expression system form BD-Clontech, as described previously. Stable lines were selected under hygromycin B (100 μg/mL) and geneticin (600 μg/mL) for 2–3 weeks after the infection.
CHO cells, expressing human opioid receptors and the Gαqi5 protein, and CHODOR, expressing the GαqG66Di5 protein, were maintained in culture medium consisting of Dulbecco minimum essential medium (DMEM) and Ham F-12 (1:1) (50/50) supplemented with 10% fetal calf serum (FCS), L-glutamine (2 mM), geneticin (200 μg/mL; G418), hygromycin B (100 μg/mL) at 37 °C in 5% CO2 humidified air. When confluence was reached (3–4 days), cells were subcultured as required using trypsin/EDTA, and used for experimentation. The different cell lines were seeded at a density of […] into black 96-well, clear-bottomed plates. After 24 h incubation, the cells were loaded with medium supplemented with 2.5 mM probenecid, 3 μM of the calcium sensitive fluorescent dye Fluo-4 AM, and 0.01% pluronic acid, for 30 min at 37 °C. Afterwards, the loading solution was aspirated and 100 μL/well of assay buffer—HBSS supplemented with 20 mM HEPES, 2.5 mM probenecid and 500 μM Brilliant Black (Aldrich, St. Louis, MO, USA)—was added. Serial dilutions of ligands for experimental use were made in HBSS/HEPES (20 mM) buffer (containing 0.005% BSA fraction V). After placing both plates (cell culture and compound plate) into the FlexStation II (Molecular Device, Union City, San Jose, CA 94587, USA), fluorescence changes were measured at room temperature. Online additions were carried out in a volume of 50 μL/well. Antagonists were incubated 15 min before the addition of the agonist. Maximum change in fluorescence, expressed in percent of baseline fluorescence, was used to determine agonist response.
Analysis of the binding data was performed using the Origin 7.5 software (OriginLab Corporation, Northampton, MA, USA). In calcium mobilization experiments, data were analyzed by non-linear curve fitting equation, using GraphPad 5.0 software. […] Ligand efficacy was expressed as intrinsic activity (α), calculated as the ratio between the Emax of the ligand and that of the respective standards. Calcium mobilization data were expressed as FIU (fluorescence intensity units) in percent, over the baseline. Agonist potencies are given as pEC50 (the negative logarithm to base 10 of the molar concentration of an agonist that produces 50% of the maximal possible effect, Emax). Concentration response curves to agonists were fitted with the following equation: Effect = baseline + (Emax − baseline)/(1+10^(LogEC50 − X) ∗ HillSlope) where X is the agonist concentration. […]

[1] = test system: cells expressing the GαqG66Di5 chimeric protein, but not DOR; experiment: Calcium mobilization in cells expressing the GαqG66Di5 chimeric protein, but not DOR; format: cell-based; settings: up to 10 μM; data not shown
From the text: The LP1 functional profile at DOR, previously in vitro detected by adenylyl cyclase, and the [^35S]GTPγS binding assays was controversial. […] Similar findings with DOR spontaneous activity and effects of DOR antagonists have been previously described. This effect was reversed at higher LP1 concentrations. These [^35S]GTPγS binding results reveal the role of LP1 as a DOR antagonist ligand. […] The DOR antagonist profile of LP1 was also detected in vivo by rat tail flick test. […] The remaining LP1 derivatives 11–16 were not able to stimulate calcium mobilization in CHO^DOR cells stably expressing the GαqG66Di5 protein. […]
CHO cells, expressing human opioid receptors and the Gαqi5 protein, and CHODOR, expressing the GαqG66Di5 protein, were maintained in culture medium consisting of Dulbecco minimum essential medium (DMEM) and Ham F-12 (1:1) (50/50) supplemented with 10% fetal calf serum (FCS), L-glutamine (2 mM), geneticin (200 μg/mL; G418), hygromycin B (100 μg/mL) at 37 °C in 5% CO2 humidified air. […] After placing both plates (cell culture and compound plate) into the FlexStation II (Molecular Device, Union City, San Jose, CA 94587, USA), fluorescence changes were measured at room temperature. […] Maximum change in fluorescence, expressed in percent of baseline fluorescence, was used to determine agonist response.

DOR = test system: DOR; set-up: method as in PMID 20599386; settings: less potent than DPDPE; cited from earlier work

T1 sequence (P41143 whole entry): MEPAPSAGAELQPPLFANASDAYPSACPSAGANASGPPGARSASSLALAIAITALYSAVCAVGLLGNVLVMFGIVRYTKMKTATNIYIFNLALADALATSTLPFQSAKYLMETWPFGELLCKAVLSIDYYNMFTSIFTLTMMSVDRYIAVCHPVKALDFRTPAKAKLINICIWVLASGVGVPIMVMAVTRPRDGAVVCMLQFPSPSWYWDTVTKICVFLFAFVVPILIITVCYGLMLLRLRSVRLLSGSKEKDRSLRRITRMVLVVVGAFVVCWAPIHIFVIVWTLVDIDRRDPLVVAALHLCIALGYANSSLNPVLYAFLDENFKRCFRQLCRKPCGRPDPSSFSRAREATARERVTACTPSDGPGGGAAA

## C[C@H]1[C@H]2Cc3ccc(O)cc3[C@]1(C)CCN2CCC(=O)Nc1ccccc1 [LP1, 3-[(2R,6R,11R)-8-hydroxy-6,11-dimethyl-1,4,5,6-tetrahydro-2,6-methano-3-benzazocin-3(2H)-yl]-N-phenylpropanamide, reference compound]
Recombinant human DOR
  EC50: 1120 nM
Recombinant human DOR; calcium mobilization
  functional profile at DOR: partial DOR agonist
[1]
  calcium mobilization in cells without DOR: completely inactive
DOR
  potency in inhibiting cAMP accumulation relative to DPDPE (fold less potent): approximately 85 fold
